For series [1], the target named is human DA transporters (DAT) (Homo sapiens, UniProt Q01959). As to the kind of experiment: dopamine uptake inhibition. In kind it is biochemical. The text has this: (§1) Dasotraline [(1R,4S)-4-(3,4-Dichlorophenyl)-1,2,3,4-tetrahydronaphthalen-1-amine] is a novel compound with DNRI pharmacology.
The nature of series [2]: clinical. The note with it: human, in vivo, 8 mg.
For another series, the target named is T1, DAT sites (Homo sapiens, UniProt Q01959).
T1 construct: from tissue; host or cells: in vivo occupancy
As to the kind of experiment: DAT site occupancy versus serum concentration (other studies, not shown). The note with it: in vivo.

A short description of series [3]: clinical. As to conditions: for steady-state concentration: predicted for longer-term administration from weeks 1-4. In kind it is in vivo, human. On the procedure: (§2) The study consisted of 3 periods including Screening, Treatment, and Washout/Follow-up, as described below. Efficacy was evaluated using the ADHD Rating Scale Version IV (ADHD RS-IV) with adult prompts. Effects on cognition were evaluated using the […]. Safety and tolerability were monitored throughout the study by collection of physical examinations, 12-lead electrocardiograms (ECG), vital signs, adverse events (AEs), hematology, blood chemistry, urinalysis, Insomnia Severity Index (ISI), and Columbia-Suicide Severity Rating Scale (C-SSRS).
(§3) Subjects self-administered the study drug at home on Days 1 through 28, at approximately the same time each night. After Day 1 subjects returned to the clinic on Days 8, 15, 22, and 29. Beginning at Day 1 and at every visit during the treatment period, the ADHD RS-IV, Wender-Reimherr Adult Attention Deficit Disorder Scale (WRAADDS), and clinical global impression—severity (CGI-S) were completed. The clinical data repository system was administered at Baseline, and Days 15 and 29.
(§4) At Days 36 and 43, subjects returned to the clinic and the ADHD RS-IV, WRAADDS, and CGI-S were completed. The clinical data repository system was completed on Day 43.
From the measurements of serum concentration at 1, 2, 3, and 4 weeks, one can graph a predicted serum concentration on longer-term administration.

Series [4] has as its system norepinephrine transporters. Description: circulating DHPG levels. In kind it is in vivo, human. The note with it: 8 mg/d.
The subject of series [5] is adults with ADHD. As to the kind of experiment: Phase 2 study in adults with ADHD, efficacy (ADHD RS-IV, CGI-S, WRAADDS, cognition). In kind it is in vivo, human. On the procedure: as §2, §3, §4
Series [6] can be described thus: clinical. The format is in vivo, human. Here is the method: Upon oral administration, methylphenidate is rapidly and completely absorbed from the gastrointestinal tract. Peak concentrations occur 1 to 2 hours after dose administration. […] When methylphenidate and cocaine are administered intravenously, their pharmacokinetics are quite similar—the percentage of each drug taken up by the brain and their rates of uptake are parallel, although the clearance from the brain of cocaine is faster than that of methylphenidate. The receptor-binding affinities for cocaine and methylphenidate are similar at the dopamine transporter in the basal ganglia and the striatum. […] Thus it appears that abuse may be related to a rapid surge in dopamine levels in the striatum. […] The consequence of the slow increase in dopamine is the absence of a “high”, and the consequence of the long T1/2 is that, following daily dosing, serum concentration gradually increases to a steady state over the course of about 7 days.

Series [7] concerns adults with ADHD. The format is in vivo, human. Here is the method: as §2, §3, §4
In series [8] the test system is healthy recreational stimulant users. As to the kind of experiment: single-dose crossover abuse potential study in recreational stimulant users. The format is in vivo, human. The text has this:
A single-dose, randomized, double-blind, double-dummy, placebo- and active-controlled crossover study with 6 treatment visits per subject was undertaken. […] Subjects participated in a medical screening visit (Visit 1), one 4-day inpatient qualification phase (Visit 2), a treatment phase (Visits 3 to 8) consisting of six 5-day inpatient treatment visits, and a safety follow-up visit (Visit 9). Within 21 days of the screening visit, subjects were enrolled and attended a qualification phase in which they received either 60 mg methylphenidate or matching placebo in a randomized double-blind crossover manner. Dosing times were separated by approximately 24 hours to ensure that subjects could discriminate and show positive effects of the positive control.
Healthy female and male subjects aged 18 to 55 years (inclusive), who were recreational central nervous system (CNS) stimulant users with cocaine experience and who had passed the methylphenidate qualification phase, were randomized into the treatment.
Drug administration occurred on Day 1 of each treatment visit followed by pharmacodynamic (PD), pharmacokinetic (PK), and safety assessments conducted for up to 72 hours post-dose. […] Subjects were randomized to one of 6 treatment sequences according to a 6×6 William square design. The capsules received at each treatment visit (Visits 3 to 8) were identical. Serial pharmacodynamic and pharmacokinetic evaluations were taken at each treatment visit. pharmacokinetic analysis was performed for dasotraline. Safety monitoring included regular assessments of vital signs, clinical laboratory tests, and adverse events (AEs), as well as continuous telemetry monitoring for at least 12 hours post-dose. Treatment visits were separated by a washout interval of at least 21 days (from the day of dosing). Subjects returned for the safety follow-up visit within approximately 14 days following the end of the last treatment visit.

The next series deals with NE transporters (NET) (Homo sapiens, UniProt P23975). Description: norepinephrine uptake inhibition. The format is biochemical.
Text: as §1

For series [9] the following is noted: cited from earlier work.
The mark [10] stands for this setting: 8 mg once daily, all assessment weeks.
Setting [11] is: methylphenidate 40 mg and 80 mg, single dose.

A value given as a limit tells only on which side of the number the result lay.

T1 sequence (Q01959 whole entry): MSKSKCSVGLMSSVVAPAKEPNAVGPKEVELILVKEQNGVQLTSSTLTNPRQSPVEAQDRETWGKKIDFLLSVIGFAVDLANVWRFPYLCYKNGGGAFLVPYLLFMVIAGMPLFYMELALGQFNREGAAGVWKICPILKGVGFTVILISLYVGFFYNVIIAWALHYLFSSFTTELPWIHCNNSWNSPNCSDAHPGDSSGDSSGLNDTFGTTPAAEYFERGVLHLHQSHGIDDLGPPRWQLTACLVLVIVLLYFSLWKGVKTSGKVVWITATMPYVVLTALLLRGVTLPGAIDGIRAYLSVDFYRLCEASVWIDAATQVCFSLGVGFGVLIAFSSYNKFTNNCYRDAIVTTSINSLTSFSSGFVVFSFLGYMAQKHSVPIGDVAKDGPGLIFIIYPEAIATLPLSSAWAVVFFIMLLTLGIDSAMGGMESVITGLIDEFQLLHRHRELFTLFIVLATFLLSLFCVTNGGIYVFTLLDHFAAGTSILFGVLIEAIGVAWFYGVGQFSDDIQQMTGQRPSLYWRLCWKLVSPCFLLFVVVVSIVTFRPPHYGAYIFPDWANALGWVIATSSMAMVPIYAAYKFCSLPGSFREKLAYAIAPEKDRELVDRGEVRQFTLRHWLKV
human DA transporters (DAT), sequence (Q01959 whole entry): as above
NE transporters (NET), sequence (P23975 whole entry): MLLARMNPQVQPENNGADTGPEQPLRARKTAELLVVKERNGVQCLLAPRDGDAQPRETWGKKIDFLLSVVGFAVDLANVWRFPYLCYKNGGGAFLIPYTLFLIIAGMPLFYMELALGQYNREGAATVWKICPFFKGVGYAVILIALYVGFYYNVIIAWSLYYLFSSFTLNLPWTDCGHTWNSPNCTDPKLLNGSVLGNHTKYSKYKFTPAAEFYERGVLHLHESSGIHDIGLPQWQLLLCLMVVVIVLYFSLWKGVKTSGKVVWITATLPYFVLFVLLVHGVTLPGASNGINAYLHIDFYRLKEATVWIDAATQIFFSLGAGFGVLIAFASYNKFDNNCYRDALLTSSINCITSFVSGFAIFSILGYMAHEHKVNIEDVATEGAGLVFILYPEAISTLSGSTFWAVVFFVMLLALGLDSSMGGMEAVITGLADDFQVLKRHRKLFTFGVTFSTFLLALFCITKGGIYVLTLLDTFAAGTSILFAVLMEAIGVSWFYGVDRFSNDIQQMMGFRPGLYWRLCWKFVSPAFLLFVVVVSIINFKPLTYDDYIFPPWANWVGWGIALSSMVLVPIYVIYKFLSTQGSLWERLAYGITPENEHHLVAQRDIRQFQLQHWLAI

For the molecule `N[C@@H]1CC[C@@H](c2ccc(Cl)c(Cl)c2)c2ccccc21` [dasotraline, (1R,4S)-4-(3,4-Dichlorophenyl)-1,2,3,4-tetrahydronaphthalen-1-amine], inhibition in [1] was half-maximal at 3 nM (IC50). In addition, in “clinical [2]”, the Cmax was ~3 ng/mL and the Tmax was > 6 h. Besides, on DAT sites, the “serum concentration at 50% DAT site occupancy” value was 5 to 6 ng/mL. For the same molecule, in “clinical [3]” (dose of 6 mg), the steady-state concentration entry is on record as “about 12 ng/mL”. Moreover, the steady-state concentration entry in “clinical [3]” (dose of 8 mg) is listed as “about 17 ng/mL”. For the same molecule, the concentration at 4 weeks in “clinical [3]” (human, in vivo, 8 mg once daily, by week four, read-out: serum concentration plateau) was in the range of 15 to 20 ng/mL. Also, the “serum concentration in the majority of patients” value in “clinical [3]” (oral dosage form containing 6-8 mg) was 10 to 18 ng/mL. Besides, the “circulating DHPG levels” value in series [4] is “decreased circulating DHPG levels”. Also, in the series on adults with ADHD [5] (8 mg once daily), the “computerized cognitive assessment battery: attention, working memory, episodic memory” value was “no significant main effects”. Also, the “Wender-Reimherr ADD total score” value in the series on adults with ADHD [5] (8 mg once daily vs placebo) is “did not improve enough to achieve statistical significance”. In addition, the “ADHD RS-IV total score, LS mean change from baseline versus placebo” value with adults with ADHD [5] (8 mg once daily, Week 2) was “trend to separation from placebo”. Moreover, in the series with adults with ADHD [5] (8 mg once daily, week 4, vs placebo), the “Wender-Reimherr subscore, attention difficulties component and disorganization component” value is “statistically significant improvement”. Also, the “time to steady state serum concentration” value in the series “clinical [6]” (daily dosing) is reported as “about 7 days”. In addition, in the series “clinical [6]” (human, in vivo, po), the Tmax was 10 to 12 h. For the same molecule, in the series “clinical [6]” (human, in vivo, read-out: serum half-life (t1/2)), the half-life is 47 to 77 h. Further, the “drug misuse or diversion, Abuse Potential Monitoring Plan” value in the series on adults with ADHD [7] (8 mg once daily) is given as “No evidence of drug misuse or diversion”. Moreover, in the series on adults with ADHD [7] (8 mg once daily, 4 weeks), the “Treatment-emergent adverse events (TEAEs)” value is reported as “higher than the percentage of TEAEs in the placebo group”, the “anxiety leading to discontinuation” value came out at 1.8%, the “incidence of adverse events rated as severe” value is reported as 13.5% and the “insomnia leading to discontinuation” value is listed as 10.8%. The “panic attack leading to discontinuation” value with adults with ADHD [7] (8 mg once daily, 4 weeks) was determined as 2.7%. For the same molecule, in the series with adults with ADHD [7] (setting [10]), the “Drug Effects Questionnaire mean item scores, distance from the 0-point” value is ≤ 5 mm and the “Drug Effects Questionnaire, drug liking” value is “No evidence of drug liking”. The “withdrawal upon discontinuation of study drug” value in the series with adults with ADHD [7] (after 4 weeks of 8 mg once daily) is reported as “No signs or symptoms of withdrawal”. In addition, the “differences from placebo on pharmacodynamic endpoints” value in series [8] (16 mg single dose) is given as “very few statistically significant differences from placebo”. In addition, in series [8] (dasotraline 8, 16 and 36 mg, single dose), the “effects on most pharmacodynamic endpoints versus placebo” value is listed as “not significantly different from those of placebo”. This molecule gave an IC50 against NE transporters (NET) of 4 nM.
For `COC(=O)C(c1ccccc1)C1CCCCN1` (stereo not shown) [methylphenidate], in series [9] (in vivo), the pharmacokinetic half-life entry is reported as “approximately 2 hours”. Moreover, the “time to peak concentrations” value in series [9] (oral administration) is 1 to 2 h. For the same molecule, in [8] (setting [11]), the “Drug Similarity Visual Analog Scale” value is “strongly identified as a stimulant”; the overall liking entry is recorded as ““liked” by subjects overall”; the “pharmacodynamic endpoints including Drug Liking Visual Analog Scale, versus placebo” value was “significant differences compared to placebo”; the secondary stimulant measures entry is reported as “strong stimulant effects”.

Values taken from US20170266133A1 (priority 2014, published 2017).
